Assay results from patent US8101780B2, “Crystalline form of 3-(difluormethyl)-1-methyl-N-(3′,4′,5′-trifluor[1,1′-biphenyl]-2-yl)-1H-pyrazol-4-carboxamide” (BASF SE, priority 2007, dated 2012).

Tests used:
Type in all cases: physicochemical
[1] = Phase conversion of the amorphous form at room temperature
Source text: The phase transformation can be seen for example in a DSC measurement or under a hot stage microscope.

[2] = Slurry examples: forms suspended in water at 30° C., stirred, XRD analysis; conditions: magnetic stirrer
Method: Slurry Examples Proving the Stability of Form B:
The form in question or mixtures of different forms of 3-(difluoromethyl)-1-methyl-N-(3′,4′,5′-trifluoro[1,1′-biphenyl]-2-yl)-1H-pyrazole-4-carboxamide were suspended in water at 30° C.

[3] = Formulation stability upon storage at 40° C. for one week (sedimentation, particle size, crystalline modification by DSC and PXRD); conditions: SC formulation
Method: The stability of the crystalline forms was tested by formulating form A or form B according to examples 1 and 2 and analyzing the formulation stability in the form of sedimentation, particle size growth and change in crystalline modification.
The obtained formulations were assessed for their stability upon storage at 40° C. for one week. Microscopic pictures of the formulation were taken before and after storage at 40° C. to examplify the change in particle size. Dispersion stability was assessed using a 2% dilution of the formulation in water in a conical cylinder. The sedimentation volume is recorded after 2 hours of standing. The sediment was collected and analysed using DSC and powder diffraction diffractometry to characterized the solid sediment (giving thus evidence of the sediment amount and crystalline modification present in the sedimentation).
This would in practice be very unfavourable and cause blocking of nozzle during the application and inhomogeneous distribution of the active ingredient into the formulation.

| Compound | Conversion of solid form on standing [1] | Conversion of solid form in water suspension (XRD analysis) ([2]; after 1 day) | Phase transformation of the formulated active ingredient (DSC and PXRD) [3] | Conversion of solid form in water suspension (XRD analysis) ([2]; after 2 days) |
| --- | --- | --- | --- | --- |
| Cn1cc(C(=O)Nc2ccccc2-c2cc(F)c(F)c(F)c2)c(C(F)F)n1 [amorphous form, 3-(Difluormethyl)-1-methyl-N-(3′,4′,5′-trifluor[1,1′-biphenyl]-2-yl)-1H-pyrazol-4-carboxamide] | converts at room temperature slowly to crystalline form A or typically to mixtures of form A and form B | converted (based on XRD analysis) into form B | – | – |
| Cn1cc(C(=O)Nc2ccccc2-c2cc(F)c(F)c(F)c2)c(C(F)F)n1 [form A, 3-(Difluormethyl)-1-methyl-N-(3′,4′,5′-trifluor[1,1′-biphenyl]-2-yl)-1H-pyrazol-4-carboxamide] | – | – | converted fully into needle like crystals of form B | converted (based on XRD analysis) into form B |
